Experimental data reported in ChEMBL document CHEMBL5726143, “Aminoindazole derivatives as sodium channel inhibitors” (2019).

Biological target: Sodium channel protein type 9 subunit alpha (Homo sapiens, UniProt Q15858)
Assay: In Vitro Electrophysiology: Electrophysiological studies are performed with an IonWorks Quattro (Molecular Devices Corp.) automated patch-clamp electrophysiology platform as described by (Schroeder K et al. Journal of Biomolecular Screening 2003, 8 (1), 50-64). Buffers for the experiments have the following composition (mM): Internal solution; K-gluconate 100, KCl 40, MgCl2 3.2, HEPES 5, EGTA 3, pH 7.3. To this amphotericin B is added to final concentration of 0.1 mg/ml to generate access solution. External solution; Dulbecco's Phosphate buffered saline (D-PBS) NaCl 137.93, KCl 2.67, KH2PO4 1.47, Na2HPO4 8.06, CaCl2 0.90, MgCl2 0.49. Prior to the experiment the cells expressing the voltage-gated ion channel of interest are detached from the tissue culture flasks, centrifuged and resuspended in D-PBS. Compounds are prepared and serially diluted in DMSO and finally diluted 1:100 in D-PBS. Cells are exposed to compounds through the pipetting system integrated into the platform and the voltage-gated ion channel of interest is activated with specific voltage stimulation protocols. The following voltage stimulation protocol is used for testing compounds against the voltage-gated sodium channel Nav1.7; from a holding potential of −100 mV a train of eight 60 ms depolarising steps to −20 mV at a frequency of 14 Hz are employed followed by a further step to −20 mV for 2000 ms. […]

Sequence of Sodium channel protein type 9 subunit alpha (Q15858 whole entry): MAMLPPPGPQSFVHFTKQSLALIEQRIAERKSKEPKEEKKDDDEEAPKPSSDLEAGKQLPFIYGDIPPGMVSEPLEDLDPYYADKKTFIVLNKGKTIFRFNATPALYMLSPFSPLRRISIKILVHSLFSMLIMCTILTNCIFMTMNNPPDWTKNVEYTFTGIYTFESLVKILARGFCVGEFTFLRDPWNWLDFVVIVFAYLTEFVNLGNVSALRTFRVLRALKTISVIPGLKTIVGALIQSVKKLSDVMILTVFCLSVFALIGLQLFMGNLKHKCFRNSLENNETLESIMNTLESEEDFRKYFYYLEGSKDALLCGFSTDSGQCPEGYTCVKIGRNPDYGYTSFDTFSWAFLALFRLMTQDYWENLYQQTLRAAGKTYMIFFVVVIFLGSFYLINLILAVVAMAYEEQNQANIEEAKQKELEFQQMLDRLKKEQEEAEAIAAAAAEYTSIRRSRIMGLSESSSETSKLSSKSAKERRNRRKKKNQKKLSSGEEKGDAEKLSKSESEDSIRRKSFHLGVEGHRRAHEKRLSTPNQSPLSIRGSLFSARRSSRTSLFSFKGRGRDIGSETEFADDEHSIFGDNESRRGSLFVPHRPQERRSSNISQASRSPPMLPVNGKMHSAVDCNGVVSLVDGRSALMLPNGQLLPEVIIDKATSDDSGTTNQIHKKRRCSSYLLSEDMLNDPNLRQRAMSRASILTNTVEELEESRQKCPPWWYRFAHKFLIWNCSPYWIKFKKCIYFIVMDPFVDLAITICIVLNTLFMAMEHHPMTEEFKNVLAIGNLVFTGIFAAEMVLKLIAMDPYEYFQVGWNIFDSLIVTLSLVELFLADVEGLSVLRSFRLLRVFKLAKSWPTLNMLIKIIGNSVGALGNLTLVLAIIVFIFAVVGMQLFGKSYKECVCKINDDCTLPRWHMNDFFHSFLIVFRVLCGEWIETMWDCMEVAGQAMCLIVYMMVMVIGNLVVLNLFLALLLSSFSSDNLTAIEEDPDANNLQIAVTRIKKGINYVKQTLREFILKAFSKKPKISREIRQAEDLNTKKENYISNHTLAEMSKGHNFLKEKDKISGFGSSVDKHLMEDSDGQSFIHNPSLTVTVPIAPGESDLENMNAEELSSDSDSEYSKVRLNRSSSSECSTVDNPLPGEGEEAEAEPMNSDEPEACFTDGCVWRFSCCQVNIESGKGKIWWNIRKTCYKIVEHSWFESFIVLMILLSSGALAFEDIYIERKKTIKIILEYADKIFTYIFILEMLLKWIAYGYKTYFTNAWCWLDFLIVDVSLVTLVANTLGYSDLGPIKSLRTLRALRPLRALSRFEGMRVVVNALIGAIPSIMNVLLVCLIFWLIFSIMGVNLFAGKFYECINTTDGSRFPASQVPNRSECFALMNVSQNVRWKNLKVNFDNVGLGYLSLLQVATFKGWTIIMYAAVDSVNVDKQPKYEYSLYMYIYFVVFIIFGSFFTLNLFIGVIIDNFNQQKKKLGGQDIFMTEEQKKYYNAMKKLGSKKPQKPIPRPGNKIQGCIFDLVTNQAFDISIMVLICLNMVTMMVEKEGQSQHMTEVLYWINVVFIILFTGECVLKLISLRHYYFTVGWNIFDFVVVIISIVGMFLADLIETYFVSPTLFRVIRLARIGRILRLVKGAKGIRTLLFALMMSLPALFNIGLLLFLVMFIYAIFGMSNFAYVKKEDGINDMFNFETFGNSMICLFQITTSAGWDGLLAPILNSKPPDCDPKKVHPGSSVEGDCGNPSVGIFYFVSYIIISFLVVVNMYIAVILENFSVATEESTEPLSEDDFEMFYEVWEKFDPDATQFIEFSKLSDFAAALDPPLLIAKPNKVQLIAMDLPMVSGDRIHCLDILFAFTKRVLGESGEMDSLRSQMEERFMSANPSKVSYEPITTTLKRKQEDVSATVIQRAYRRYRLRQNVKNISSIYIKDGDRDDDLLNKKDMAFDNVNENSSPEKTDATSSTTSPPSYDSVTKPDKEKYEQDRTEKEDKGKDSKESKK

SMILES	IC50
COc1ccc(OCC(F)(F)C(F)(F)F)c(-c2ccc3c(N)nn(C)c3c2)c1	1230 nM
COc1cccc(-c2ccc3c(N)nn(C)c3c2)c1OCC(F)F	1070 nM
